Data as given in publication PMC6350621, “Small-molecules that covalently react with a human prolyl hydroxylase – towards activity modulation and substrate capture” (Chemical Communications (Cambridge, England), 2018).

Key:
[1] = target: PHD3 (Homo sapiens, UniProt Q9H6Z9); test: Denaturing MS covalent adduct formation with PHD3; type: binding; settings: enzyme 20 μM, Fe(II) 30 μM, compound 30 μM, 37 °C, 4 h
[2] = target: T1, PHD2_181–426 (Homo sapiens, UniProt Q9GZT9); test: Non-denaturing ESI-MS of covalent adduct formation with PHD2; type: binding; settings: equimolar PHD2/Fe(II), 37 °C
T1 construct: PHD2_181–426 (hereafter PHD2); His6 (N, cleaved yes); made in house; host or cells: bacterial culture (2x TY, kanamycin, IPTG)
T1 sequence (Q9GZT9 181-426): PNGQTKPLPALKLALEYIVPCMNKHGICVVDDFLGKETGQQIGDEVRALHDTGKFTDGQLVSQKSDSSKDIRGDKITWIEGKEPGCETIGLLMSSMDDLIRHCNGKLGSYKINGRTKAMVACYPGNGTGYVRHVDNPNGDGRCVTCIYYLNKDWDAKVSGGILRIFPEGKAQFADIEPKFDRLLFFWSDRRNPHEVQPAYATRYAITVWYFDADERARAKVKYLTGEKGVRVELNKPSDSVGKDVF
Protocol: The interaction of the ligands with PHD2_181–426 (hereafter PHD2) was examined by non-denaturing ESI-MS, using cone voltage variation to distinguish covalent and non-covalent complexes (non-covalent interactions are typically preserved at cone voltages of 50–80 V, and dissociated at 200 V).[16]–[18] Aldehydes 1 and 2 were incubated with equimolar PHD2 and Fe(II) (37 °C; 5 or 20 min). […] Without Fe(II), neither covalent nor non-covalent adducts were observed, implying covalent conjugation involves active site Fe(II) binding, with subsequent condensation.
Fig. S2 A) Schematic representation of the assigned species formed on addition of 1 or 2 to PHD2. The results support initial non-covalent binding of the inhibitors to PHD2.Fe(II) to form B. Subsequently, condensation of a lysine residue with the aldehyde forms the covalent adduct C. (B) and (C): Non-denaturing ESI-MS data support the covalent crosslinking of 1/2 with PHD2. Conditions: PHD2 (20 µM) was incubated (37 °C, 5 or 20 min) with equimolar FeSO4 and 1 or 2, and the resulting mixtures were analysed by ESI-MS (cone voltage: 50 V or 200 V). Labelled peaks correspond to: A: Unmodified PHD2.Fe. B: Non-covalent adduct PHD2.Fe.2. C: Covalent adduct PHD2.Fe.1/2.
Fig. S6 The α,β-unsaturated amide 3 can covalently modify PHD2. (A) Schematic representation of the adducts formed upon incubation of 3 with PHD2.
PHD2. PHD2 (20 µM) was incubated (37 °C, 5 min, 1 h or 2 h) with equimolar FeSO4 and 3 or 4 before analysis by ESI-MS (cone voltage: 50 V or 200 V). Labelled peaks correspond to the following assigned complexes: A: unmodified PHD2.Fe; B: the non-covalent PHD2.Fe.3 adduct; C: the covalent PHD2.Fe.3 adduct.
2. Experimental procedures
1.1.1 Non-denaturing mass spectrometry1
Apo PHD2 was desalted using a Bio-Spin 6 Column (Bio-Rad, Hemel Hempstead, UK) into 15 mM ammonium acetate (pH 7.5). The stock solution was diluted with the same buffer to a final concentration of 100 μM. FeSO4·7H2O was dissolved in 20 mM HCl at a concentration of 100 mM. This solution was then diluted with MilliQ purified water to give a final working concentration of 100 μM. The protein was mixed with the Fe(II) solution and the inhibitor solution to give final concentrations of 20 μM PHD2, 20 μM Fe(II), and 20 μM inhibitor. The resultant solution was incubated for the appropriate time (specified in the text) at 37 […]
(5 min or 20 min) at 37 °C. After incubation, the samples were immediately analysed by ESI-MS. Data were acquired using a Q-TOF mass spectrometer (Q-TOF micro, Micromass, Altrincham, UK) interfaced with a Nanomate (Advion Biosciences, Ithaca, NY, USA) with a chip voltage of 1.70 kV and a delivery pressure 0.5 psi (1 psi = […]). The sample cone voltage was typically 200 or 50 V with a source temperature of 40 °C and with an acquisition/scan time of 10s/1s. Sample acquisition was performed in positive ion mode in the range of 2000-4000 m/z. The pressure at the interface between the atmospheric source and the high vacuum region was fixed at 6.30 mbar. External instrument calibration was achieved using sodium iodide.

[3] = target: T2, PHD2 (Homo sapiens, UniProt Q9GZT9); test: Peptide turnover assay (CODD hydroxylation) with MALDI-MS detection; type: biochemical; settings: pre-incubation 0, 1, 2 and 4 h
T2 construct: PHD2_181–426 (hereafter PHD2); His6 (N, cleaved yes); made in house; host or cells: bacterial culture (2x TY, kanamycin, IPTG)
T2 sequence (Q9GZT9 181-426): as above

[4] = target: T3, PHD2 K408I (Homo sapiens, UniProt Q9GZT9, K408I); test: Non-denaturing ESI-MS crosslinking, K408I variant; type: binding; settings: equimolar FeSO4 and compound, 3 h, 37 °C
T3 construct: PHD2_181–426 (hereafter PHD2); His6 (N, cleaved yes); made in house; host or cells: bacterial culture (2x TY, kanamycin, IPTG); QuikChange mutagenesis
T3 sequence (Q9GZT9 181-426 K408I): as the sequence (Q9GZT9 181-426) above, with K228I counted along it
Source text: The site of crosslinking was investigated by trypsin digest and LC-MS/MS. The imine adducts formed by 1/2 were fixed by reduction using sodium cyanoborohydride (Fig. S12, ESI ^†). Modified protein samples were digested (trypsin) and analysed by ‘nano LC-MS/MS’.[19] In all 3 samples, modification by the respective inhibitor was identified on the trypsin-derived peptide 403[…]411, and localised to K408 (Fig. 3B and Fig. S13, ESI ^†).
Fig. S11 Non-denaturing ESI-MS data of K408I PHD2 in the presence of equimolar amounts of FeSO4 and the Michael acceptor 3 after 3 hours incubation at 37 °C in ammonium acetate (15 mM, pH 7.5) at a sample cone voltages of (a) 80V or (b) 200V. Non-denaturing ESI-MS data of […] PHD2 in the presence of equimolar amounts of FeSO4 and 3 after 3 hours incubation at 37 °C in ammonium acetate (15 mM, pH 7.5) at a sample cone voltage of (c) 80V or (d) 200V. The peaks observed are consistent with the following complexes: (A): K408I.Fe; (B): non-covalent K408I.Fe.3 complex, (C): covalent K408I.Fe.3 complex; (D): R411M.Fe; (E): covalent R411M.Fe.3 complex.

[5] = target: PHD2 (residues 181-426) (Homo sapiens, UniProt Q9GZT9); test: biochemical
PHD2 (residues 181-426), sequence (Q9GZT9 181-426): as the sequence (Q9GZT9 181-426) above

[6] = target: PHD1 (Homo sapiens, UniProt Q96KS0); test: Denaturing MS covalent adduct formation with PHD1; type: binding; settings: enzyme 20 μM, Fe(II) 30 μM, compound 30 μM, 37 °C, 4 h
PHD1, sequence (Q96KS0 whole entry): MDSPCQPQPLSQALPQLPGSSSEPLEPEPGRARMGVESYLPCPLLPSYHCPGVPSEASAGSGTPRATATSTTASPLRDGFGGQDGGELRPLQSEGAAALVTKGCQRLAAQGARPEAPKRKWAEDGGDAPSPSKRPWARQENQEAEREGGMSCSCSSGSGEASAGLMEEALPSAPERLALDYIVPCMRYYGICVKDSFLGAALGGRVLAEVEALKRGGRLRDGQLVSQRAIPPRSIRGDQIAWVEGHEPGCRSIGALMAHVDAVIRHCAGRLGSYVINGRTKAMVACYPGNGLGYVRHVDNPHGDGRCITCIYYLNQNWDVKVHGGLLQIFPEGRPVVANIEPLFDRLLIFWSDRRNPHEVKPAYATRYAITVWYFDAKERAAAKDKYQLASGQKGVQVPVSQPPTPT

PHD3, sequence (Q9H6Z9 whole entry): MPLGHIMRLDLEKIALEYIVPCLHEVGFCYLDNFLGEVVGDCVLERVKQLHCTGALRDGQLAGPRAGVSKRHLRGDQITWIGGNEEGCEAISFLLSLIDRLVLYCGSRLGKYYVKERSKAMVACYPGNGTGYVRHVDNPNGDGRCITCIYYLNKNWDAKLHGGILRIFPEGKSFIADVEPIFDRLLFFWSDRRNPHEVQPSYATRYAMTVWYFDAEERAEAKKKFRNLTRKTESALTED

covalent reaction with PHD3 [1]: did not covalently react
conversion to the covalent adduct after 1 h ([2]; 1 h): 1/3
conversion to the covalent adduct after 2 h ([2]; 2 h): 2/3
apparent covalent modification of PHD2 K408I [4]: < 10%
IC50 [5]: > 2000 µM
covalent reaction with PHD1 [6]: did not covalently react
SMILES: C=CC(=O)Nc1cccc(C(=O)NCC(=O)O)c1O [compound 3]
activity of PHD2 pre-incubated with the compound [3]: remained as active as the non pre-incubated, uninhibited PHD2
